How the values were obtained:
[1] = target: T1, P2X purinoceptor 3 (Rattus norvegicus, UniProt P49654); test: Antagonist activity at rat P2X3 receptor expressed in CHO cells; assay type: functional, cell-based
T1 sequence (P49654 whole entry): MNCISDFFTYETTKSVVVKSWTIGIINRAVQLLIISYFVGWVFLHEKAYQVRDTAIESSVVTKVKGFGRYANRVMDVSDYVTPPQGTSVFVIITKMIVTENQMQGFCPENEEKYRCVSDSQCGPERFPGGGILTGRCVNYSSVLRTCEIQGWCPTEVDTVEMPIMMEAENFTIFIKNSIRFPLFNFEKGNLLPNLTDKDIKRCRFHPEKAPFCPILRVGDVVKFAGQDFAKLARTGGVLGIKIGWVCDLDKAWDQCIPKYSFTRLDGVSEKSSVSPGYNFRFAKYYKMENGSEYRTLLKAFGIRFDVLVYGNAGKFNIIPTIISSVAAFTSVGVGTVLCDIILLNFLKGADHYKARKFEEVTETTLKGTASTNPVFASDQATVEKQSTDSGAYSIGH

[2] = target: Muscarinic acetylcholine receptor M2 (Homo sapiens) (UniProt P08172); test: Displacement of [3H]AF-DX 384 from human recombinant muscarinic M2 receptor expressed in CHO cells at 10 uM after 60 mins by scintillation counting; assay type: cell-based
[3] = target: Kappa-type opioid receptor (Rattus norvegicus) (UniProt P34975); test: Displacement of [3H]U 69593 from rat recombinant kappa opioid receptor expressed in CHO cells at 10 uM after 60 mins by scintillation counting; assay type: cell-based
Chain of Kappa-type opioid receptor (Rattus norvegicus) (P34975 whole entry): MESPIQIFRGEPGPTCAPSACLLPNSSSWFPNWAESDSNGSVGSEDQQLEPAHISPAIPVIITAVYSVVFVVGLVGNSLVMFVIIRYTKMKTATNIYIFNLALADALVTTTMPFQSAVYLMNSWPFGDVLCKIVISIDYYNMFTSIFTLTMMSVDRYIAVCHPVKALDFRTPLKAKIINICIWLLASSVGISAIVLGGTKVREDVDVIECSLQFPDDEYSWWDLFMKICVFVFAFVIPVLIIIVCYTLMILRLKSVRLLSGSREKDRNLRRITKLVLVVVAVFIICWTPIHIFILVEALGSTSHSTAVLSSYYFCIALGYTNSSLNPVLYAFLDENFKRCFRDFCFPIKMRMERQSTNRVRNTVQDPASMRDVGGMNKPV

[4] = target: Neurotensin receptor type 1 (Homo sapiens) (UniProt P30989); test: Displacement of [125I]Tyr3-neurotensin from human recombinant NTS1 receptor expressed in CHO cells at 10 uM after 60 mins by scintillation counting; assay type: cell-based
[5] = tested on: Hepatocyte; test: Metabolic stability in rat hepatocytes; assay type: ADME, cell-based
[6] = target: Mu-type opioid receptor (Homo sapiens) (UniProt P35372); test: Displacement of [3H]DAMGO from human recombinant mu opioid receptor expressed in HEK293 cells at 10 uM after 120 mins by scintillation counting; assay type: cell-based
[7] = target: Somatostatin receptor (Mus musculus) (UniProt P30935+O08858+P30875+P30873+P49660); test: Displacement of [125I]Tyr11-somatostatin-14 from somatostatin in mouse AtT-20 cells at 10 uM after 60 mins by scintillation counting; assay type: cell-based; settings: AtT20
[8] = species on record: Rattus norvegicus; test: Displacement of [3H]TCP from PCP receptor in rat cerebral cortex at 10 uM after 120 mins by scintillation counting; assay type: tissue-based
[9] = target: P2X purinoceptor 4 (Homo sapiens, UniProt Q99571); test: Antagonist activity at P2X4 receptor; assay type: functional
[10] = target: P2X purinoceptor 6 (Homo sapiens, UniProt O15547); test: Antagonist activity at P2X6 receptor; assay type: functional
Chain of P2X purinoceptor 6 (O15547 whole entry): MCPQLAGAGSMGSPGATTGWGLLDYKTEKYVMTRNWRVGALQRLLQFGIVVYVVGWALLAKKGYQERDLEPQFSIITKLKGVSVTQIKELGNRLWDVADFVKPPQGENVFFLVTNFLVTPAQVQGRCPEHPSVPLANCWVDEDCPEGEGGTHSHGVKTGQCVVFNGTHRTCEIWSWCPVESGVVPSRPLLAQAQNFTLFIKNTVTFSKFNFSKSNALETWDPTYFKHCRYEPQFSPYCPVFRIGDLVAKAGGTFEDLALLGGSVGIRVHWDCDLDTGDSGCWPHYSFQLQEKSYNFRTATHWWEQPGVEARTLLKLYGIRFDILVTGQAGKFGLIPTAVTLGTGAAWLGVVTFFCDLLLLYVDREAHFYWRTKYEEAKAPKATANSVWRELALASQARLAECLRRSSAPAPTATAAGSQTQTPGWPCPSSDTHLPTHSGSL

[11] = target: Histamine H1 receptor (Homo sapiens) (UniProt P35367); test: Displacement of [3H]pyrilamine from human recombinant histamine H1 receptor expressed in HEK293 cells at 10 uM after 60 mins by scintillation counting; assay type: cell-based
Chain of Histamine H1 receptor (Homo sapiens) (P35367 whole entry): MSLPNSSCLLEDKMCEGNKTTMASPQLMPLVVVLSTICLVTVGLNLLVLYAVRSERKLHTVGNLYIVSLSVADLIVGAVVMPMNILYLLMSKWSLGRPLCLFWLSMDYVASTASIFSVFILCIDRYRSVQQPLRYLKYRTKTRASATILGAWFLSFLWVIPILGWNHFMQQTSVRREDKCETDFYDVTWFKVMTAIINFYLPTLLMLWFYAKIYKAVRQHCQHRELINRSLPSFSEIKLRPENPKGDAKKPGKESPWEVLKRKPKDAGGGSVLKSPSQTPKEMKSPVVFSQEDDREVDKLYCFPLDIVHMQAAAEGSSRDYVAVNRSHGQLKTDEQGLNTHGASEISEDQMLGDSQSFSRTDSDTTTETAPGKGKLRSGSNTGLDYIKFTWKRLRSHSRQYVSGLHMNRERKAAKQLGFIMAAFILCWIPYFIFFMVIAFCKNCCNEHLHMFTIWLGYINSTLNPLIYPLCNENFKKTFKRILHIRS

[12] = target: Substance-K receptor (Homo sapiens) (UniProt P21452); test: Displacement of [125I]NKA from human recombinant NK2 receptor expressed in CHO cells at 10 uM after 60 mins by scintillation counting; assay type: cell-based
Chain of Substance-K receptor (Homo sapiens) (P21452 whole entry): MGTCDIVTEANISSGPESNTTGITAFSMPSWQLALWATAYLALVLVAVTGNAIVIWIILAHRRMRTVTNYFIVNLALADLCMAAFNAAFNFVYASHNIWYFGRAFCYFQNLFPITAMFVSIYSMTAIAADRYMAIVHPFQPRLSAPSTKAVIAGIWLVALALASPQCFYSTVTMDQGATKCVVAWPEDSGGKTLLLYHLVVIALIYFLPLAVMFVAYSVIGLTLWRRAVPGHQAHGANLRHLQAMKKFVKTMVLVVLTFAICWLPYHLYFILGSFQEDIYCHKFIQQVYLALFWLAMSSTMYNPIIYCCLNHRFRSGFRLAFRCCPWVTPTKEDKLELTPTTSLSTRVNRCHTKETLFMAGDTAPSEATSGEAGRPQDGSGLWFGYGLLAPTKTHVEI

[13] = target: Sodium-dependent dopamine transporter (Homo sapiens) (UniProt Q01959); test: Displacement of [3H]BTCP from human recombinant DAT expressed in CHO cells at 10 uM after 120 mins by scintillation counting; assay type: cell-based
Chain of Sodium-dependent dopamine transporter (Homo sapiens) (Q01959 whole entry): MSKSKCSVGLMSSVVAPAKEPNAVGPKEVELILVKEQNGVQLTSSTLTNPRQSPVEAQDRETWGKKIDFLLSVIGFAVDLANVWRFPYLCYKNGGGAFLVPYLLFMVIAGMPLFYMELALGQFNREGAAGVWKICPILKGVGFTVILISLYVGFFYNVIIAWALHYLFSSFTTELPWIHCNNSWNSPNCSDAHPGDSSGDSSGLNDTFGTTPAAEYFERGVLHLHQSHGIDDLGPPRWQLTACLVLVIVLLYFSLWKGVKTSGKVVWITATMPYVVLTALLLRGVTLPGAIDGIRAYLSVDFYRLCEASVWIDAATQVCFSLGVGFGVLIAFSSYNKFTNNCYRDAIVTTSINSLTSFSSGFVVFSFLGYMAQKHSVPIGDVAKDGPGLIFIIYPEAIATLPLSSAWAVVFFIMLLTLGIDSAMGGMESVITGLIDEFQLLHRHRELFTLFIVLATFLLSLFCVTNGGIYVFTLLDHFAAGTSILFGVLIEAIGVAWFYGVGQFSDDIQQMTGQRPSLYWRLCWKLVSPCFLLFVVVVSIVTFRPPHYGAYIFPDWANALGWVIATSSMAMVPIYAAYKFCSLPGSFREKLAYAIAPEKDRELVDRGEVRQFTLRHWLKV

[14] = tested on: CHO; test: Displacement of [3H]DADLE from human recombinant delta2 opioid receptor expressed in CHO cells at 10 uM after 120 mins by scintillation counting; assay type: cell-based
[15] = target: P2X purinoceptor 2 (Homo sapiens, UniProt Q9UBL9); test: Antagonist activity at P2X2 receptor; assay type: functional
[16] = target: 5-hydroxytryptamine receptor 6 (Homo sapiens) (UniProt P50406); test: Displacement of [3H]LSD from human recombinant 5HT6 receptor expressed in CHO cells at 10 uM after 120 mins by scintillation counting; assay type: cell-based
Chain of 5-hydroxytryptamine receptor 6 (Homo sapiens) (P50406 whole entry): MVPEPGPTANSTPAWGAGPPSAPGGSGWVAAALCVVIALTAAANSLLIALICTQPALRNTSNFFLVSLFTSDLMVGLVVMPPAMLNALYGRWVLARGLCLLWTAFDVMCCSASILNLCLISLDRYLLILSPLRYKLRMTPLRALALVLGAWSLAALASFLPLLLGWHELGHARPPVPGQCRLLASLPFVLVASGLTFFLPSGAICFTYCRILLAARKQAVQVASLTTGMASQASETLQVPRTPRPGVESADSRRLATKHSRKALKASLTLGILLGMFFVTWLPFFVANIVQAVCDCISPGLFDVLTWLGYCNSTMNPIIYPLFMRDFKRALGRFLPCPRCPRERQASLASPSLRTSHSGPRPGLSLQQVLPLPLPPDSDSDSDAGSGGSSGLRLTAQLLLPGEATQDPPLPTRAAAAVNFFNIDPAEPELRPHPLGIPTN

[17] = target: Adenosine receptor A1 (Homo sapiens) (UniProt P30542); test: Displacement of [3H]DPCPX from human recombinant A1 receptor expressed in CHO cells at 10 uM after 60 mins by scintillation counting; assay type: cell-based
[18] = target: Small conductance calcium-activated potassium channel (Rattus norvegicus) (UniProt P70604+P70606+P70605); test: Displacement of [125I]apamin from SK […] channel in rat cerebral cortex at 10 uM after 60 mins by scintillation counting; assay type: tissue-based
[19] = target: P2X purinoceptor 1 (Homo sapiens, UniProt P51575); test: Antagonist activity at P2X1 receptor; assay type: functional
[20] = target: 5-hydroxytryptamine receptor 1B (Rattus norvegicus) (UniProt P28564); test: Displacement of [125I]CYP from 5HT1B receptor in rat cerebral cortex at 10 uM after 120 mins by scintillation counting in presence of 30 uM isoproterenol; assay type: tissue-based
Chain of 5-hydroxytryptamine receptor 1B (Rattus norvegicus) (P28564 whole entry): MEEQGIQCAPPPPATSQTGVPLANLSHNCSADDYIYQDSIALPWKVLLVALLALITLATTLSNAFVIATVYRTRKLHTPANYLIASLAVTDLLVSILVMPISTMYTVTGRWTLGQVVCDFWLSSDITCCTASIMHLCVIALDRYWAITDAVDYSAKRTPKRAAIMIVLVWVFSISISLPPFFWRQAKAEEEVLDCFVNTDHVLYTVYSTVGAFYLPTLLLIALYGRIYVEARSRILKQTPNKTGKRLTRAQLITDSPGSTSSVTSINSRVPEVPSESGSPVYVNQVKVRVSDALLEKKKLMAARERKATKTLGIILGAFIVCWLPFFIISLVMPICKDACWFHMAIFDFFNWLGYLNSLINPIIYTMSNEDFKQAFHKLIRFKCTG

[21] = target: Cholecystokinin receptor type A (Homo sapiens) (UniProt P32238); test: Displacement of [125I]CCK-8s from human recombinant CCK1 receptor expressed in CHO cells at 10 uM after 60 mins by scintillation counting; assay type: cell-based
Chain of Cholecystokinin receptor type A (Homo sapiens) (P32238 whole entry): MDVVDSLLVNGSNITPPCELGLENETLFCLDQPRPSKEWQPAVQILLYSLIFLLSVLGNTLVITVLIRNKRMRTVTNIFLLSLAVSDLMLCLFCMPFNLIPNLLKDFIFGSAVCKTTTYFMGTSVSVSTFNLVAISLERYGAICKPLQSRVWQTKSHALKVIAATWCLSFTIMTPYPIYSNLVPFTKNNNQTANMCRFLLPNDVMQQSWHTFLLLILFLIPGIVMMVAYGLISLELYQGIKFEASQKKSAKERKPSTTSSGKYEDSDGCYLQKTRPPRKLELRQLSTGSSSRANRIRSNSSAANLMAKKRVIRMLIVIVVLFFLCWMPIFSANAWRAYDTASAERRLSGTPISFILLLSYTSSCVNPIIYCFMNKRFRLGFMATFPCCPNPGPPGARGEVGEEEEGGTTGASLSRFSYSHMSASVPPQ

[22] = species on record: Rattus norvegicus; test: Displacement of [35S]TBPS from GABA gated chloride channel in rat cerebral cortex at 10 uM after 120 mins by scintillation counting; assay type: tissue-based
[23] = target: 5-hydroxytryptamine receptor 1A (Homo sapiens) (UniProt P08908); test: Displacement of [3H]8-OH-DPAT from human recombinant 5HT1A receptor expressed in HEK293 cells at 10 uM after 60 mins by scintillation counting; assay type: cell-based
Chain of 5-hydroxytryptamine receptor 1A (Homo sapiens) (P08908 whole entry): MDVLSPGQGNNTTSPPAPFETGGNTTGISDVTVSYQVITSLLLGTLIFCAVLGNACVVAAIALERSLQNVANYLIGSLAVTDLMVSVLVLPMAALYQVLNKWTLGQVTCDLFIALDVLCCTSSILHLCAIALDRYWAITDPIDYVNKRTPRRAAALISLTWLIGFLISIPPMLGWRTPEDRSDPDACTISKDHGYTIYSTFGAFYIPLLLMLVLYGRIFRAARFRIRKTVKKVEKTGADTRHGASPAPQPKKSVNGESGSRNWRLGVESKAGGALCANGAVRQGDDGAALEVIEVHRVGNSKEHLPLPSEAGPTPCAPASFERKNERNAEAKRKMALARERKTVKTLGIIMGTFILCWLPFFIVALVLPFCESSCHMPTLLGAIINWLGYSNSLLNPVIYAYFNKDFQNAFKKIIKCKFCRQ

[24] = target: 5-hydroxytryptamine receptor 2C (Homo sapiens) (UniProt P28335); test: Displacement of [3H]mesulergine from human recombinant 5HT2C receptor expressed in HEK293 cells at 10 uM after 120 mins by scintillation counting; assay type: cell-based
[25] = target: P2X purinoceptor 5 (Homo sapiens, UniProt Q93086); test: Antagonist activity at P2X5 receptor; assay type: functional
[26] = Metabolic stability in rat liver microsomes; assay type: ADME, Microsome; settings: read-out: Stability
[27] = target: Pituitary adenylate cyclase-activating polypeptide type I receptor (Homo sapiens) (UniProt P41586); test: Displacement of [125I]PACAP1-27 from human recombinant PAC1 receptor expressed in CHO cells at 10 uM after 120 mins by scintillation counting; assay type: cell-based
Chain of Pituitary adenylate cyclase-activating polypeptide type I receptor (Homo sapiens) (P41586 21-468 limits assumed): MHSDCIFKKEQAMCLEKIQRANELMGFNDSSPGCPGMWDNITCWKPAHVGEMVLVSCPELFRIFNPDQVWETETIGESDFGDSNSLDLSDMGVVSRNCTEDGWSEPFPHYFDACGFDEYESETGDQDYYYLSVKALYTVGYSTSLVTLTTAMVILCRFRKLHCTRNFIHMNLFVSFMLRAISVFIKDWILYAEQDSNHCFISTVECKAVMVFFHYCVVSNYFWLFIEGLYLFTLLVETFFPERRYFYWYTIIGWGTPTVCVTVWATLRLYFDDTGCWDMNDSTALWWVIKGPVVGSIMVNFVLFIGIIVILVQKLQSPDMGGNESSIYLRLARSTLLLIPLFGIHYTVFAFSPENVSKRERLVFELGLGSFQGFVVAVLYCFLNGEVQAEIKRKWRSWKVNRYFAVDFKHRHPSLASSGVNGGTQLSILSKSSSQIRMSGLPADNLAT

[28] = target: Adrenergic receptor alpha-2 (Rattus norvegicus) (UniProt P22086+P19328+P22909); test: Displacement of [3H]RX 821002 from alpha2 receptor in rat cerebral cortex at 10 uM after 60 mins by scintillation counting; assay type: tissue-based
[29] = target: 5-hydroxytryptamine receptor 5A (Homo sapiens) (UniProt P47898); test: Displacement of [3H]LSD from human recombinant 5HT5A receptor expressed in HEK293 cells at 10 uM after 120 mins by scintillation counting; assay type: cell-based
Chain of 5-hydroxytryptamine receptor 5A (Homo sapiens) (P47898 whole entry): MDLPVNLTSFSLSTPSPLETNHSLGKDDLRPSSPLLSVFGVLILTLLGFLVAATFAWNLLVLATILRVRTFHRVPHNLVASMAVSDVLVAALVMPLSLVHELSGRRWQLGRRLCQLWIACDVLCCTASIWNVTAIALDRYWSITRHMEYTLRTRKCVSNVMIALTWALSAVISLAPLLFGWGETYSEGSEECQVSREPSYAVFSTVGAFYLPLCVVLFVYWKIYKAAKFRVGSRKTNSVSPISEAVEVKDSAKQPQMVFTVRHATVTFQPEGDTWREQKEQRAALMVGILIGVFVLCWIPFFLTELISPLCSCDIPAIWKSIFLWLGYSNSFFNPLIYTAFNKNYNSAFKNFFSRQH

[30] = target: Melatonin receptor type 1A (Homo sapiens) (UniProt P48039); test: Displacement of [125I]2-iodomelatonin from human recombinant MT1 receptor expressed in CHO cells at 10 uM after 60 mins by scintillation counting; assay type: cell-based
[31] = Metabolic stability in human liver microsomes; assay type: ADME, Microsome; settings: read-out: Stability
[32] = species on record: Rattus norvegicus; test: Displacement of [3H]DTG from sigma opioid receptor in rat cerebral cortex at 10 uM after 120 mins by scintillation counting; assay type: tissue-based

In the case of CC(=O)N1CCN(C[C@@H](C)NC(=O)c2cc3c(-c4ccccc4)nn(C)c3s2)CC1, the IC50 [1] is reported as 0.0316 µM, the Activity [2] is reported as > 50% and the Activity [3] is reported as > 50%. The Activity [4] was > 50%, the Stability [5] was 3.93 µL/min/mg and the Activity [6] was > 50%. The Activity [7] was > 50%, the Activity [8] was > 50% and the IC50 [9] was > 10 µM. For the same compound, the IC50 [10] was > 10 µM, the Activity [11] was > 50% and the Activity [12] was > 50%. For the same compound, the Activity [13] was > 50%, the Activity [14] was > 50% and the IC50 [15] was > 10 µM. The Activity [16] was > 50%, the Activity [17] was > 50% and the Activity [18] was > 50%. For the same compound, the IC50 [19] was > 10 µM, the Activity [20] was > 50% and the Activity [21] was > 50%. The Activity [22] was > 50%, the Activity [23] was > 50% and the Activity [24] was > 50%. For the same compound, the IC50 [25] was > 10 µM, the microsomal CLint [26] was 43.7 µL/min/mg and the Activity [27] was > 50%. For the same compound, the Activity [28] was > 50%, the Activity [29] was > 50% and the Activity [30] was > 50%. For the same compound, the microsomal CLint [31] was 1.7 µL/min/mg and the Activity [32] was > 50%.

From ChEMBL document CHEMBL1159093, “Discovery and optimization of RO-85, a novel drug-like, potent, and selective P2X3 receptor antagonist” (Bioorg Med Chem Lett, 2010)
